The subject of experiment [1] is MC/9 mast cells. It counts as cell-based, murine. Also noted: MCD10: concentration of peptide necessary to induce degranulation of 10% of mast cells: unit not given here.
Experiment [2] deals with anti-rPA IgG. Also noted: species or system female C3H/HeN mice. Particulars: mouse, in vivo.
The subject of experiment [3] is anti-rPA serum IgG. Also on record: species or system C3H/HeN female mice. To be noted: mouse, in vivo.
Experiment [4] deals with anti-WNV IgG. Format: in vivo, Female BALB/c mice. Particulars: nasal, days 0, 7 and 21, WNV antigen 1 μg + 0.25 or 1.25 nmoles peptide; ANOVA p<0.05.
Experiment [5] concerns anthrax lethal toxin. Also on record: species or system C3H/HeN female mice. To be noted: mouse, in vivo.
Experiment [6] has as its system anti-PA IgG. Also on record: species or system Female C3H/HeN mice. Particulars: mouse, in vivo.

The values that follow come from US9301999B2 (priority 2009, dated 2016).

“And” between values parts separate entries of the source, which are not always exact repeats. Identical values can stand only once. “Also recorded” adds a separate entry of the source. Where no end group is shown, it is not given here.

In the case of “INLKALAALAKALL [Mastoparan 7, INLKALAALAKALL—NH2, reference compound]”, in experiment [1], the “% MC/9 Degranulation” value is 50.25% and 80.20%; the “% Mast Cell Degranulation” value was 72.33% and 54.35% and 39.12%; the “MCD10: concentration of peptide necessary to induce degranulation of 10% of mast cells” value is listed as 6.31; the “mast cell degranulation (β-hexosaminidase released into the culture medium)” value is recorded as “induced mast cell degranulation”. The EC50 in experiment [1] (read-out: MCD50: concentration of peptide necessary to induce degranulation of 50% of mast cells) came out at 18.1 µM. In addition, in experiment [2], the “serum anti-rPA IgG titers, difference between the -OH and -NH2 forms” value is “no significant difference”. The “serum anti-PA IgG geometric means titers (GMT), adjuvant activity” value (“serum anti-PA IgG geometric means titers” for short) in experiment [3] is listed as “significantly increased”. In addition, the “Anti-WNV IgG titers in sera on day 28, versus antigen alone” value in experiment [4] is “significantly greater”. Moreover, the “lethal toxin neutralizing antibody response in serum” value in experiment [5] was “neutralized anthrax lethal toxin; also recorded: significantly increased versus all other groups”.
In the case of INLKAKAALAKKLL-OH [Mastoparan 17], in experiment [6], the “adjuvant activity as determined by serum anti-PA IgG endpoint titers” value was “did not provide adjuvant activity”. Besides, in experiment [1], the “% MC/9 Degranulation” value is listed as 0%. Also, the “serum anti-PA IgG geometric means titers” value in experiment [3] is listed as “did not provide detectable adjuvant activity”. Further, the “lethal toxin neutralizing antibody response in serum” value in experiment [5] is “did not induce lethal toxin neutralizing responses greater than those detected in mice immunized with rPA alone”.
Regarding INLKALAALAKKIL-NH2 [Mastoparan], the “adjuvant activity as determined by serum anti-PA IgG endpoint titers” value in experiment [6] is reported as “provided adjuvant activity”. In experiment [1], the “% MC/9 Degranulation” value was found to be 66.60%, the “MCD10: concentration of peptide necessary to induce degranulation of 10% of mast cells” value stood at 33.07 and the “mast cell degranulation (β-hexosaminidase released into the culture medium)” value was “induced mast cell degranulation”. In addition, the “serum anti-rPA IgG titer versus mice immunized with rPA alone” value in experiment [2] is “significantly greater”. Moreover, the “serum anti-PA IgG geometric means titers” value in experiment [3] is given as “significantly increased”. Also, the “lethal toxin neutralizing antibody response in serum” value in experiment [5] is recorded as “neutralized anthrax lethal toxin; also recorded: significantly increased versus all other groups”.
